{"source": "patent US6462086B1", "about": "“Non-malignant disease treatment with Ras antagonists” (Ramot University Authority for Applied Research and …, priority 1999, dated 2002)", "key": {"[1]": {"test_system": "MRL/lpr mice", "test": "Autoantibody levels in MRL mice after 2 months FTS (Example 4, ELISA)", "type": "in vivo, mouse", "conditions": "FTS 5 mg/kg 5 days per week", "description": "Two models of the antiphospholipid syndrome were compared. The MRL/lpr mouse, which is a […] model due to a mutaion in the Fas gene, and Balb-C mice immunized with ApoH (β2 glucoprotein 1), which is an induced model. The effect of 2 months FTS (5 days per week, 5 mg/kg) treatment on autoantibody levels in MRL mice (age 10 weeks to 18 weeks) is presented in FIG. 14. The levels of autoantibodies were measured at age 18 weeks by routine ELISA assays (repeated measures ANOVA, p=0.016). […] Anti-ApoH and anti-dsDNA were the major autoantibody groups found. Significant, but lower levels of autoantibodies to phospholipids and single stranded DNA were found in the MRL/lpr mice compared to the MLR/++ controls."}, "[2]": {"test_system": "MRL/lpr mice", "test": "Open field test in MRL mice", "type": "in vivo, mouse", "conditions": "20 minutes", "description": "Saline-treated and FTS-treated MRL/lpr and saline-treated MRL/++ mice (n=5), were tested for spatial behavior in a novel environment in an open field. The apparatus comprised of a circular pool (120 cm diameter by 50 cm high) placed in a lighted room. The test was conducted during the light phase of day-night cycle. The mice were brought to the experimental room 1 hour before testing. Each mouse was removed gently from its cage, placed individually at the center of the field, and videotaped with a camcorder for 20 minutes. At the end of each session the pool was cleaned with paper towels moistened with ammonium glass cleaner to remove urinary trails. The frequency and duration of progression or stopping in the open field was analyzed during playback of the video records by software custom-written by Dr. David Eilam (Life Sciences Department, Tel-Aviv University). Total distance traveled, locomotion time, speed of moving, spatial distribution of explorations and latency for establishing a home base, and duration of staying there, were extracted."}, "[3]": {"test_system": "lymphocytes from draining lymph nodes of EAE SJL mice", "test": "Ex vivo proliferative responses of lymph node lymphocytes from FTS-treated EAE mice", "type": "in vivo, mouse", "conditions": "for proliferative response of lymphocytes (cpm): FTS 5 mg/Kg i.p. daily, day 10"}, "[4]": {"test": "Distribution of 3H-FTS in plasma and liver", "type": "in vivo, rat", "conditions": "5 mg/Kg", "description": "For each set of experiments, FTS was prepared in chloroform (0.1 M stock solution) and maintained at −70° C. The chloroform was removed from the stock solution by a stream of nitrogen prior to use, and FTS was then dissolved either in DMSO (in vitro experiments) or in ethanol (in vivo experiments). The FTS/DMSO solutions were diluted with DMEM/10% fetal calf serum (FCS) to yield a 100×drug stock solution containing 10% DMSO. A portion of this solution was applied to the cells at a dilution of 1:100. The FTS/ethanol solution was alkalinized by the addition of 1N NaOH, then diluted with phosphate-buffered saline (PBS) to obtain a solution of 1.0 mg FTS/ml (pH 8.0, 0.5% ethanol). This solution (1-1.5 ml per rat) was used in the in vivo experiments. In a separate set of experiments, the distribution of FTS in the plasma and in the liver was assayed by the use of 3H -FTS (12.5 ci/mmole, ARC, St. Louis Mo.). […] The estimated concentration FTS in the liver at peak times (20 to 60 min) was 29 μM. Drug levels in the liver declined thereafter to the level of 0.5 μM at 24 h."}, "[5]": {"test_system": "TAA-induced acute liver injury in rats", "test": "TAA-induced acute liver damage in FTS-pretreated rats", "type": "in vivo, rat", "conditions": "TAA + FTS 5 mg/kg daily from 3 days before TAA; 52 h; Mean ± SD, n = 5", "description": "To exclude the possibility that the effect of FTS on hepatic fibrosis is due to anti-inflammatory rather than anti fibrotic activity, acute liver damage was induced by TAA (3 injections of 400 mg/kg, i.p.) in a separate group of FTS-pretreated rats. Blood was drawn 52 h after the first TAA injection for the measurement of serum levels of hepatic enzymes and blood ammonia, and liver tissue was […]. TAA was administered in 3 consecutive injections of 400 mg/kg, i.p. in 24 h intervals. Serum levels of liver enzymes, blood ammonia and liver histology were determined 52 h after the first TAA injection. FTS administration (5 mg/kg daily), was started 3 days prior to the first TAA injection."}, "[6]": {"test_system": "MRL/lpr and MRL/++ mice", "type": "in vivo", "conditions": "FTS 5 mg/Kg/day", "description": "FTS was synthesized as previously described (13). FTS was stored in chloroform, which was evaporated under a stream of nitrogen immediately before use. The powder was dissolved in absolute ethanol and diluted to the desired concentration in sterile saline made basic with NaOH. 200 μl of carrier solution containing 100 μg of FTS (5 mg/kg) were injected intraperitoneally (i.p.) into each mouse. Control solution was prepared at the same time starting with a chloroform solution.\nMice were treated once a day, 3-5 times a week starting from 6 or 10 weeks of age until 18 weeks of age.\nProteinuria was normalized in FTS-treated MRL/lpr mice as were grip strength and certain aspects of behavior in the open field."}, "[7]": {"test_system": "MRL/lpr mice", "test": "Proteinuria (dipstick) in MRL mice", "type": "in vivo, mouse", "conditions": "MRL/lpr mice treated 5 days a week from 6 weeks of age", "description": "The presence of proteinuria was measured on freshly expressed urine samples at weekly intervals. The protein content was evaluated semiquantitatively using a commercial dipstick method (Macherey-Nagel, Germany). This colorimetric assay is specific for albumin, with approximate protein concentration as follows: 0, 30, 100 and 500 mg/dl (mg%)."}, "[8]": {"conditions": "MRL/lpr mice, age 10 to 18 weeks"}, "[9]": {"conditions": "FTS-treated mice compared to controls"}}, "note": "Entries after “also recorded” stand apart in the source; their conditions may differ."}
{"smiles": "CC(C)=CCC/C(C)=C/CC/C(C)=C/CSc1ccccc1C(=O)O", "note": "[FTS, farnesyl thiosalicylic acid]", "values": [{"measurement": "levels of autoantibodies to phospholipids and single stranded DNA (minor antibodies)", "setting": "[1]", "value": "did not lower significantly"}, {"measurement": "levels of anti-ApoH autoantibodies", "setting": "[1]; [8]", "value": "Significantly lower levels"}, {"measurement": "levels of anti-double stranded DNA (dsDNA) autoantibodies", "setting": "[1]; [8]", "value": "Significantly lower levels"}, {"measurement": "open field: time spent in the center", "setting": "[2]", "value": "significant effect on the time spent in the center"}, {"measurement": "open field: total distance covered", "setting": "[2]", "value": "no effect on the total distance covered"}, {"measurement": "change of reactivity to ConA", "setting": "[3]; [9]", "value": "no change of reactivity"}, {"measurement": "decrease in the reactivity of lymphocytes to GMBP", "setting": "[3]; [9]", "value": 83, "unit": "%"}, {"measurement": "decrease in the reactivity of lymphocytes to PLP-peptide", "setting": "[3]; [9]", "value": 72, "unit": "%"}, {"measurement": "decrease of the reactivity to PPD and to LPS", "setting": "[3]; [9]", "value": "50-57%"}, {"measurement": "proliferative response of lymphocytes (cpm)", "setting": "[3]; antigen: GMBP", "value": "7,864 ± 636 cpm"}, {"measurement": "stimulation index (S.I.)", "setting": "[3]; antigen: GMBP, FTS-treated EAE mice", "value": 1.8}, {"measurement": "proliferative response of lymphocytes (cpm)", "setting": "[3]; antigen: PLP", "value": "8,901 ± 2,014 cpm"}, {"measurement": "stimulation index (S.I.)", "setting": "[3]; antigen: PLP, FTS-treated EAE mice", "value": 2.1}, {"measurement": "proliferative response of lymphocytes (cpm)", "setting": "[3]; antigen: PPD", "value": "27,342 ± 3,627 cpm"}, {"measurement": "stimulation index (S.I.)", "setting": "[3]; antigen: PPD, FTS-treated EAE mice", "value": 6.4}, {"measurement": "proliferative response of lymphocytes (cpm)", "setting": "[3]; antigen: none", "value": "4,266 ± 508 cpm"}, {"measurement": "reduction in response to myelin specific antigens", "setting": "[3]; ex vivo, FTS-treated EAE mice", "value": "> 78", "unit": "%"}, {"measurement": "proliferative response of lymphocytes (cpm)", "setting": "[3]; mitogen: ConA", "value": "86,870 ± 7,483 cpm"}, {"measurement": "stimulation index (S.I.)", "setting": "[3]; mitogen: ConA, FTS-treated EAE mice", "value": 20.4}, {"measurement": "proliferative response of lymphocytes (cpm)", "setting": "[3]; mitogen: LPS", "value": "45,196 ± 4,246 cpm"}, {"measurement": "stimulation index (S.I.)", "setting": "[3]; mitogen: LPS, FTS-treated EAE mice", "value": 10.6}, {"measurement": "estimated concentration of FTS in the liver at peak times", "setting": "[4]", "value": 29, "unit": "µM"}, {"measurement": "peak liver levels, % of the injected dose", "setting": "[4]", "value": 1.75, "unit": "%"}, {"measurement": "peak plasma levels, % of the injected dose", "setting": "[4]", "value": 10.7, "unit": "%"}, {"measurement": "peak times in the liver", "setting": "[4]", "value": "20 to 60", "unit": "min"}, {"measurement": "concentration at 24 h", "setting": "[4]; Wistar, rat, liver, other: injected (type of injection not given), read-out: drug level in the liver at 24 h", "value": 500, "unit": "nM"}, {"measurement": "AST", "setting": "[5]", "value": "2996 ± 364", "unit": "IU/l"}, {"measurement": "Blood Ammonia", "setting": "[5]", "value": "8.9 ± 2.3", "unit": "µg/mL"}, {"measurement": "Hepatic inflammation and cell necrosis (score of 0-3)", "setting": "[5]", "value": "2.5 ± 0.6"}, {"measurement": "toxicity", "setting": "[6]", "value": "no significant toxicity"}, {"measurement": "proteinuria", "setting": "[7]", "value": "very low levels of proteinuria; also recorded: normalized"}]}
